Holding throughout (assay): kinase selectivity panel
Holding throughout (assay type): biochemical

The target in one test is T1, KDR (Homo sapiens, UniProt P35968).
T1 construct: purchased Eurofins Pharma Discovery Services (KinaseProfiler; Cerep BioPrint panel)
The following applies: read-out: percentage of control activity (POC), KDR. The essentials:
(§1)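 The compound is screened at 10 μM in duplicate against 125 representative kinases. Selected activities are followed up with a nine-concentration duplicate titration to give IC50.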

The next test deals with T2, PKCβII (Homo sapiens, UniProt P05771).
T2 construct: purchased Eurofins Pharma Discovery Services (KinaseProfiler; Cerep BioPrint panel)
As to conditions: read-out: percentage of control activity (POC), PKCβII. The essentials: as §1

Another test addresses T3, EphA5 (Homo sapiens, UniProt P54756).
T3 construct: purchased Eurofins Pharma Discovery Services (KinaseProfiler; Cerep BioPrint panel)
As to conditions: read-out: percentage of control activity (POC), EphA5. The essentials:
as §1

Another test deals with T4, FGFR3 (Homo sapiens, UniProt P22607).
T4 construct: purchased Eurofins Pharma Discovery Services (KinaseProfiler; Cerep BioPrint panel)
The following applies: read-out: percentage of control activity (POC), FGFR3. The essentials: as §1

Another test has as its target T5, MAPKAP-K2 (Homo sapiens, UniProt P49137).
T5 construct: purchased Eurofins Pharma Discovery Services (KinaseProfiler; Cerep BioPrint panel)
The following applies: read-out: percentage of control activity (POC), MAPKAP-K2. The gist of the method:
as §1

For another test, the target named is T6, MAPK2 (Homo sapiens, UniProt P28482).
T6 construct: purchased Eurofins Pharma Discovery Services (KinaseProfiler; Cerep BioPrint panel)
As to conditions: read-out: percentage of control activity (POC), MAPK2. The essentials: as §1

The target in a further test is T7, CSK (Homo sapiens, UniProt P41240).
T7 construct: purchased Eurofins Pharma Discovery Services (KinaseProfiler; Cerep BioPrint panel)
The following applies: read-out: percentage of control activity (POC), CSK. The essentials: as §1

The next test has as its target T8, PKG1α (Homo sapiens, UniProt Q13976).
T8 construct: purchased Eurofins Pharma Discovery Services (KinaseProfiler; Cerep BioPrint panel)
T8 sequence (Q13976 1-671): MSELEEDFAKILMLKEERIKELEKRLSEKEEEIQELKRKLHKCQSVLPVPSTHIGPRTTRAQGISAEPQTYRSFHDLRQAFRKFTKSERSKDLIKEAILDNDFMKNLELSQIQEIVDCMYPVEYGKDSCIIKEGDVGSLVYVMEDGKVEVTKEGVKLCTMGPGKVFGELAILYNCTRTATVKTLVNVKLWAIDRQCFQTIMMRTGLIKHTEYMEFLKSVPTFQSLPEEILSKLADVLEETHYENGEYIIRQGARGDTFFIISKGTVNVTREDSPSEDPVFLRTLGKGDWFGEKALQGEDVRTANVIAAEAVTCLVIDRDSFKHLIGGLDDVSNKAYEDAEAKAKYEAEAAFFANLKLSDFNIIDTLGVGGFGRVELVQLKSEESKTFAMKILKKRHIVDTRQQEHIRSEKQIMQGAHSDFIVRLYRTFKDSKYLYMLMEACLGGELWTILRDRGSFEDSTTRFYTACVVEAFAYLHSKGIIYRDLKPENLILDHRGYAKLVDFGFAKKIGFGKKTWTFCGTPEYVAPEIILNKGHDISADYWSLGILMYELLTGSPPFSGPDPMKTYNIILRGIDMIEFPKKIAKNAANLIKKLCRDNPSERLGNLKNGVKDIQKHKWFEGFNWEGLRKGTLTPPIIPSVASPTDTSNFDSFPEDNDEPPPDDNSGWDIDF
The following applies: read-out: percentage of control activity (POC), PKG1α. The essentials:
as §1

Another test concerns the target T9, Rse (Homo sapiens, UniProt Q06418).
T9 construct: purchased Eurofins Pharma Discovery Services (KinaseProfiler; Cerep BioPrint panel)
T9 sequence (Q06418 41-890): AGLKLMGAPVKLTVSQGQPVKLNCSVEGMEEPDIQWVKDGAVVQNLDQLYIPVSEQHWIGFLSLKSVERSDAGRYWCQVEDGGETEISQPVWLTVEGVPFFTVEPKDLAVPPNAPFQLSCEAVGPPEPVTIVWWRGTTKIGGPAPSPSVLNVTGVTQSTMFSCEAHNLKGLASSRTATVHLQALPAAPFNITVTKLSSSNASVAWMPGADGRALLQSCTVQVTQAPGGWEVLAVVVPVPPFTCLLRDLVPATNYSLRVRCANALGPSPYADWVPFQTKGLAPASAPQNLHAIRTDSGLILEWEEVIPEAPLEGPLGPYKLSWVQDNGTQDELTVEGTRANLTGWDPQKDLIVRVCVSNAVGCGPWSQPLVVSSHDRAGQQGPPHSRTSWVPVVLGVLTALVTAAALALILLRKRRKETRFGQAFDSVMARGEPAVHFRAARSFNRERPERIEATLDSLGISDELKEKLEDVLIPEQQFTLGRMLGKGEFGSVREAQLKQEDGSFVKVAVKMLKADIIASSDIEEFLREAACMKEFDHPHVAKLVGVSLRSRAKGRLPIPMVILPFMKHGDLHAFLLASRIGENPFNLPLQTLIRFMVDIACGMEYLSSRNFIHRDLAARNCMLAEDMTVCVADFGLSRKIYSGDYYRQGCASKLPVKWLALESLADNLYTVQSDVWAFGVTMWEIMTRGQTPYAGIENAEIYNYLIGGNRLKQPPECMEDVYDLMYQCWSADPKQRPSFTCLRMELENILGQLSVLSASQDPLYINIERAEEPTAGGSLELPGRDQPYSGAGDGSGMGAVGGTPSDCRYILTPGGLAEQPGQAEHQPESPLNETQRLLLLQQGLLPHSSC
The following applies: read-out: percentage of control activity (POC), Rse. The gist of the method: as §1

For the next test, the target named is T10, Pim-1 (Homo sapiens, UniProt P11309).
T10 construct: purchased Eurofins Pharma Discovery Services (KinaseProfiler; Cerep BioPrint panel)
The following applies: read-out: percentage of control activity (POC), Pim-1. The gist of the method:
as §1

The target in a further test is T11, PTK5 (Homo sapiens, UniProt P42685).
T11 construct: purchased Eurofins Pharma Discovery Services (KinaseProfiler; Cerep BioPrint panel)
As to conditions: for remaining activity at 10 µM: read-out: percentage of control activity (POC), PTK5. The essentials: as §1

T5 sequence (P49137 whole entry): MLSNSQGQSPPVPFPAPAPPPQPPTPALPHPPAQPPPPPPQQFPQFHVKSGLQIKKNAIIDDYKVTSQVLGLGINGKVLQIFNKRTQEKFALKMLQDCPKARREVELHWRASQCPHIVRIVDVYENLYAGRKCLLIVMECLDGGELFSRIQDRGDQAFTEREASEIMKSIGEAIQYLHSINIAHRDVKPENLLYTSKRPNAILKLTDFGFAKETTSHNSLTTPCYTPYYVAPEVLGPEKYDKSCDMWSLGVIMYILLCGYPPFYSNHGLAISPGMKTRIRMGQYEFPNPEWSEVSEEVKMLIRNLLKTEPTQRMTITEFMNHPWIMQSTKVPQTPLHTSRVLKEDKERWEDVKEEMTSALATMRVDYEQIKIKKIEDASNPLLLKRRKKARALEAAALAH
T7 sequence (P41240 whole entry): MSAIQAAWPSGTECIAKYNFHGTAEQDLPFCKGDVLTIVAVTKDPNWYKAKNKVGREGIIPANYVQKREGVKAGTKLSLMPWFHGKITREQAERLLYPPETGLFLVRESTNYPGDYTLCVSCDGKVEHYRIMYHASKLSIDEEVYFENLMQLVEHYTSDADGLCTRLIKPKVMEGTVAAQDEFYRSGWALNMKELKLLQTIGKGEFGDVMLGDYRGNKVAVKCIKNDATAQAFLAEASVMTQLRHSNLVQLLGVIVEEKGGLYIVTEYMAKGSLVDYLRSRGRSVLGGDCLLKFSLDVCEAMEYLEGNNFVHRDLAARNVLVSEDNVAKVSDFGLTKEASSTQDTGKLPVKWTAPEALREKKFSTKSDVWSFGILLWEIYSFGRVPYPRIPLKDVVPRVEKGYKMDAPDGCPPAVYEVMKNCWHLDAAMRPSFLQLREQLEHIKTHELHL
T3 sequence (P54756 25-1037): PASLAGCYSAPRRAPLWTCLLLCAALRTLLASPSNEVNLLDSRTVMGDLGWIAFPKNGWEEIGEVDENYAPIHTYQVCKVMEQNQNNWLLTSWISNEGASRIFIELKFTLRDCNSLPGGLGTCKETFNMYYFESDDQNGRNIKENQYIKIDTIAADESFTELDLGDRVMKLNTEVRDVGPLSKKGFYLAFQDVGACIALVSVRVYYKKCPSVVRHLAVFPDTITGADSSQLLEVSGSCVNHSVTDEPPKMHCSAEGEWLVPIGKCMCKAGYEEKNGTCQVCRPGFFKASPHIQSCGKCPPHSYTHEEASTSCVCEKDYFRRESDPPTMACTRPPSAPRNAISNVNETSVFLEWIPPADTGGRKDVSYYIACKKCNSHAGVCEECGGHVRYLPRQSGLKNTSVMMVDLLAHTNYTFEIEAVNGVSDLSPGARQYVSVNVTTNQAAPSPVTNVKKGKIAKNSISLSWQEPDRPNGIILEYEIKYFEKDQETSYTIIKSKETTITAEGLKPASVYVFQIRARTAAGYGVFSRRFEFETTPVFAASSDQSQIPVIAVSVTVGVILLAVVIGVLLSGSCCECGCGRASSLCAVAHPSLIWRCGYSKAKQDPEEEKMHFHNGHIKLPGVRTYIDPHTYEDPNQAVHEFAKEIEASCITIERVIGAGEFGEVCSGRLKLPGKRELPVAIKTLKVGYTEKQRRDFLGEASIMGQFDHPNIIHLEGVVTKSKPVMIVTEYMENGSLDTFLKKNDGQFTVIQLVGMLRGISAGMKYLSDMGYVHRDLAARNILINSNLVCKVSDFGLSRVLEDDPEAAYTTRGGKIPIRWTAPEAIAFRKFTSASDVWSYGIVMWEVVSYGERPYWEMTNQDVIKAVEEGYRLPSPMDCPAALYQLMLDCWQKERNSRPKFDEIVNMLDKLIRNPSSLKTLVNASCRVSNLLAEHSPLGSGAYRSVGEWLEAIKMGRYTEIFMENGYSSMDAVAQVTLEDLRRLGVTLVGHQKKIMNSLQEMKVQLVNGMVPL
T6 sequence (P28482 whole entry): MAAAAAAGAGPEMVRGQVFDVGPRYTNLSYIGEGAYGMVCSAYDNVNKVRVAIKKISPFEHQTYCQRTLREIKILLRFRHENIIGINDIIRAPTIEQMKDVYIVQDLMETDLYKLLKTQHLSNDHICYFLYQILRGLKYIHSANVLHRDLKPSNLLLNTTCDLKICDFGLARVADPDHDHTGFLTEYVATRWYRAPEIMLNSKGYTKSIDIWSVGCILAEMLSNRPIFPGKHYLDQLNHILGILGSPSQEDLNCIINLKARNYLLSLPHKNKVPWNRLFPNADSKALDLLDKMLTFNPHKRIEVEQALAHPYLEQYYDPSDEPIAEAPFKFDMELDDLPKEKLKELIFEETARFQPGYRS
T1 sequence (P35968 20-1356): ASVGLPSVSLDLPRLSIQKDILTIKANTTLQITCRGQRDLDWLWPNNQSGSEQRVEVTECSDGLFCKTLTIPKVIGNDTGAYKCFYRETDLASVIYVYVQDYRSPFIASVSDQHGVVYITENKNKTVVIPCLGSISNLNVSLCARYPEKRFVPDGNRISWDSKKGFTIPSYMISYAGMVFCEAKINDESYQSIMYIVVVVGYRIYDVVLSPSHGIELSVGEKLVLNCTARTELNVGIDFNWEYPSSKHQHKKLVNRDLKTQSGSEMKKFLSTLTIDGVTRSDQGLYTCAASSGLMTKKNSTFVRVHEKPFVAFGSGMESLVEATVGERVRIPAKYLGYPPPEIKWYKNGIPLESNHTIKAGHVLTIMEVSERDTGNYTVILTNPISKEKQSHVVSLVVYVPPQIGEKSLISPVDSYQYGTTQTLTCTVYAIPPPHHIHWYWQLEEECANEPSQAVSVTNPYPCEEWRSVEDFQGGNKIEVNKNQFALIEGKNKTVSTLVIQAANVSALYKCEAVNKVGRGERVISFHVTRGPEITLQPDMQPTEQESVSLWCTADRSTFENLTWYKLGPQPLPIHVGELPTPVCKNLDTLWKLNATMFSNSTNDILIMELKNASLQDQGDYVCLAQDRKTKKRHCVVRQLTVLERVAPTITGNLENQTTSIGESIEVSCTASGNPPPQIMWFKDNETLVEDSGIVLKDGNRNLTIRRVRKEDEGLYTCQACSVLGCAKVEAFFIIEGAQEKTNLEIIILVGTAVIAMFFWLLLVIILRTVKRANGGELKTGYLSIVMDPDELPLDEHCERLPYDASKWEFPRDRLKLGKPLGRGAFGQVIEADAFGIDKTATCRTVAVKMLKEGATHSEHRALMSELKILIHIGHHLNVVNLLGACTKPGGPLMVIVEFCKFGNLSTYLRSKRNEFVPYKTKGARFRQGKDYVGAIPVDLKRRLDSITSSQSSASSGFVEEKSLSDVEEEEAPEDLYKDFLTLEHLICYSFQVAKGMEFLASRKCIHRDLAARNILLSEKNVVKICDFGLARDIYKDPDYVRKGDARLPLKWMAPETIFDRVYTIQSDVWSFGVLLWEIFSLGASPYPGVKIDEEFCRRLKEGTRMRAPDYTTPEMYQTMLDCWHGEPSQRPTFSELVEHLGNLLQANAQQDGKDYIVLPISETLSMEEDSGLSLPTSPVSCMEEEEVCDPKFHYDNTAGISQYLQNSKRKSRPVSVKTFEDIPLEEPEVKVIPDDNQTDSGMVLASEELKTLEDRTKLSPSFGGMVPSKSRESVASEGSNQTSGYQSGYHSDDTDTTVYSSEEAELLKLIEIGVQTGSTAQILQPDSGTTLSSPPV
T10 sequence (P11309 whole entry): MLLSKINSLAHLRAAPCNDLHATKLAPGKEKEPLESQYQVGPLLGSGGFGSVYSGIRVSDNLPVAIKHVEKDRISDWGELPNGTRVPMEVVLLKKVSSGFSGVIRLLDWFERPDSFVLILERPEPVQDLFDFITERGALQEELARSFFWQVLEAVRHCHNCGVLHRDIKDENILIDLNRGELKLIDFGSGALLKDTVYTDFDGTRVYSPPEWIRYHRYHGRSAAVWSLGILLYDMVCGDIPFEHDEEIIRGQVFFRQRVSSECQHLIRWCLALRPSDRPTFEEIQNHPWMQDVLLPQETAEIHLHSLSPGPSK
T11 sequence (P42685 whole entry): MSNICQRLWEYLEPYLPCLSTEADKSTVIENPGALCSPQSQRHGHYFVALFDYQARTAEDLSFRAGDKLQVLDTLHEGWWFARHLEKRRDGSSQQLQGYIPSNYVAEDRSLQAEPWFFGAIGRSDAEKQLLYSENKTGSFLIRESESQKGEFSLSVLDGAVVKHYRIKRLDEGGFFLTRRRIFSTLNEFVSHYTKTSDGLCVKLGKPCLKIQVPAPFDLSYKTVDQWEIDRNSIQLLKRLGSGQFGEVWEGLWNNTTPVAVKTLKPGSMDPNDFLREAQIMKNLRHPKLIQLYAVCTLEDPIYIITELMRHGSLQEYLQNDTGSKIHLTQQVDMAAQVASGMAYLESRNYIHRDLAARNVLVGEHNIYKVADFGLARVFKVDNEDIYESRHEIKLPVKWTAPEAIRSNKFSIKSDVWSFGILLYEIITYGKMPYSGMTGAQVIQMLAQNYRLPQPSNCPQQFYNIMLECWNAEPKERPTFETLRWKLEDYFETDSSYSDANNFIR
T2 sequence (P05771 1-673 isoform P05771-2): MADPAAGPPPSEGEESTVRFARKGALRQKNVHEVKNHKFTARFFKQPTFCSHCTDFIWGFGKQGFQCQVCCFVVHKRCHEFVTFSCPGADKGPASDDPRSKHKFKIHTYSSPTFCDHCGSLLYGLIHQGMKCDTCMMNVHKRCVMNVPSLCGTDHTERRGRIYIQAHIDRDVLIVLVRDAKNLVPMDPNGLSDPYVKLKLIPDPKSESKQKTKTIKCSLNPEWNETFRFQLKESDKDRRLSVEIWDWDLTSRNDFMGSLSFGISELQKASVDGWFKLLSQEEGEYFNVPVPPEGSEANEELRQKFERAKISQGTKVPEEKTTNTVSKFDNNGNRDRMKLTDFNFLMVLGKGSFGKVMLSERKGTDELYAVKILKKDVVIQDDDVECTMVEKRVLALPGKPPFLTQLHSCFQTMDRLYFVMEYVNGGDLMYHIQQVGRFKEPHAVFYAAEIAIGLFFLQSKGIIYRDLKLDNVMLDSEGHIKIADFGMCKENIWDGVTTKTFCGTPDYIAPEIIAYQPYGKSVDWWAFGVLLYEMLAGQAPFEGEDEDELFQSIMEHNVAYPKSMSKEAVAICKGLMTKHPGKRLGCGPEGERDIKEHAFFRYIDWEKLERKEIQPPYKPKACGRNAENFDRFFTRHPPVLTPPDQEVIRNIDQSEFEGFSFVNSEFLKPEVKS

Regarding `CC(C)(C)N1CCC(c2cc(-c3ccc(F)cc3Cl)c3cc[n+]([O-])c(-c4c(Cl)cccc4Cl)c3n2)CC1` [compound 2], the remaining activity at 10 µM at KDR was determined as 92%; at PKCβII, 117%; at EphA5, 95%; at FGFR3, 99%; at MAPKAP-K2, 108%; at MAPK2, 105%. Besides, the remaining activity at 10 µM is 95% at CSK; 108% at PKG1α; 109% at Rse; 86% at Pim-1; 97% on PTK5.

`Cc1ccc(C(=O)NCC2CC2)cc1-c1ccc2c(c1)NC(=O)C21CCCC1` [compound 3]: the remaining activity at 10 µM was 93% at KDR; 103% at PKCβII; 99% at EphA5; 92% on FGFR3; 106% at MAPKAP-K2; 97% at MAPK2. The remaining activity at 10 µM at CSK was determined as 107%; at PKG1α, 102%; at Rse, 99%; on Pim-1, 79%; at PTK5, 56%.

Consider `Cn1cc(-c2cccc(-c3nc(C(=O)NC4C5CC6CC4CC(O)(C6)C5)c(N)nc3N)c2)cn1` (centres unmarked) [compound 4], for which the remaining activity at 10 µM at KDR came out at 72%; at PKCβII, 110%; on EphA5, 93%; on FGFR3 it was 88%; at MAPKAP-K2 it was 107%; at MAPK2, 97%. Moreover, the remaining activity at 10 µM at CSK was 94%; at PKG1α, 97%; on Rse, 92%; on Pim-1, 68%; at PTK5 it was 54%.

Turning to `CS(=O)(=O)N1CCN(c2ccc(Nc3ncc(C(N)=O)c(NC4CC4)n3)cc2)CC1` [compound 5], the remaining activity at 10 µM amounted to 6% on KDR; 80% at PKCβII; 56% on EphA5; 8% at FGFR3; 85% on MAPKAP-K2; 49% at MAPK2. In addition, the remaining activity at 10 µM on CSK stood at 74%; on PKG1α, 66%; at Rse it was 33%; on Pim-1, 81%; at PTK5, 31%.

As a reminder, the inhibition is the share of the control response that was lost under treatment. On to `COc1c(NC(=O)c2ccc(C)c(-c3nnc4c(NCC(C)(C)C)nccn34)c2)cc(C(C)(C)C)cc1NS(C)(=O)=O` [compound 7, reference compound], for which the remaining activity at 10 µM amounted to 82% on KDR; 113% on PKCβII; 65% at EphA5; 97% at FGFR3; 110% at MAPKAP-K2; 99% on MAPK2. The remaining activity at 10 µM is 88% at CSK; 105% at PKG1α; 107% on Rse; 96% at Pim-1; 4% on PTK5. Moreover, the inhibition at 10 µM against PTK5 came out at 96%.

For the origin of these results see PMC5761851, “Application of a phenotypic drug discovery strategy to identify biological and chemical starting points for inhibition of TSLP production in lung epithelial cells” (PLoS ONE, 2018).
